# “Also recorded” adds a separate entry of the source.
# Tests used:
# NFAT = test: Western blot of phosphorylated NFAT (s237) in activated Jurkat cells; type: cell-based, human; details: Jurkat activated with PMA+PHA
# Method: Cell Culture: Human peripheral blood mononuclear cells (PBMC,) and Jurkat cells were purchased from ATCC (PCS-800-011, Manassas, VA). Cells were maintained at 37° C. in a humidified atmosphere composed of 5% CO2. Jurkat cells were cultured in RPMI 1640 medium which was supplemented with 10% FCS and human PBMC was cultured in RPMI 1640 medium which was supplemented with 10% FCS and pen/strep. Both Jurkat cells and PBMC were stimulated with PHA (50 ng/mL) and PMA (1 μg/mL) for 24 hours prior to harvesting for IL-2 detection or 6 hours prior for western blot analysis. The NU7441 DNA-PKcs inhibitor was added at varying concentrations at the time of stimulation.
# Cell lysis and nuclear extract: Cells were washed with cold PBS twice and centrifuged at 5000 rpm for 5 minutes. For the nuclear extract, pellets were suspended with 800 μL of 10 mN HEPES lysis buffer (10 mM HEPES at pH 7.9, 10 mM KCl, 1 mM DTT, and 1× protease and phosphatase inhibitor) and incubated on ice for 15 minutes. 50 μL of NP-40 (10% in water) was added and the pellets were mixed for 10 seconds. Lysates were centrifuged for 5 minutes at 4° C. at 13,000 rpm. […]
# CHK2 = test: Western blot of phosphorylated CHK2 (Thr68) in activated Jurkat cells; type: cell-based, human; details: Jurkat activated with PMA+PHA
# Method: Cell lysis and nuclear extract: Cells were washed with cold PBS twice and centrifuged at 5000 rpm for 5 minutes. For the nuclear extract, pellets were suspended with 800 μL of 10 mN HEPES lysis buffer (10 mM HEPES at pH 7.9, 10 mM KCl, 1 mM DTT, and 1× protease and phosphatase inhibitor) and incubated on ice for 15 minutes. 50 μL of NP-40 (10% in water) was added and the pellets were mixed for 10 seconds. Lysates were centrifuged for 5 minutes at 4° C. at 13,000 rpm. The supernatant solution which is containing the cytosolic fraction was discarded and the pellets were resuspended in 20 mM HEPES lysis buffer (20 mM HEPES at pH 7.9, 0.4 M NaCl, 1 mM DTT, and 1× protease, and phosphatase inhibitor) and incubated on ice for 15 minutes with intermittent mixing. Lysates were centrifuged for 10 minutes at 4° C. at 13,000 rpm. The supernatant containing nuclear extract was stored at -20° C. until they were used for the Western blot analysis. For total cell lysates, cell pellets were resuspended with 100 μL of RIPA buffer (150 mM NaCl, 1% Triton X-100, 0.1% SDS, and 50 mM Tris at pH 8.0) and incubated on ice for 10 minutes. The lysates were centrifuged for 10 minutes at 4° C. at 13,000 rpm and the supernatant solutions were stored at -20° C. until they were used for the Western blot analysis. Western blot analysis: Nuclear extract lysates were separated on 3-8% Tris-Acetate gels (Invitrogen). […]
# [1] = tested on: skin allograft mouse model; test: Mouse skin allograft; type: in vivo
# Method: Materials: DNA-PK inhibitor, NU7441 was purchased from Selleckchem.com and used in vivo at 10 mg/kg diluted in DMSO and 40% PEG or in vitro at 5 μM. Tacrolimus (FK506) was ordered for Sigma Aldrich and used at a concentration of 1 mg/kg in vivo.
# Mouse skin allograft: To confirm that DNA-PK inhibitors could function as an immunosuppressant in vivo, mouse skin allograft studies were performed. All studies were performed under an approved IACUC protocol. Ears from donor BALBc mice were removed and split into two removing all cartilaginous material. The ear skin was placed on an incision made to the back of a recipient C57BI6 or DNA-PK knockout (NOD.CB17-Prkdc scid/J-20) mouse. The skin was sutured in 4 places using 6-0 nylon sutures. Wounds were wrapped in gauze and ban-daids and allowed to heal for 6 days before removing the bandage. Spleens were harvested from donor mice for splenocyte isolation. On Day 0 through Day 10 (the day of sacrifice) mice were injected (100 ul) daily with one of the following: saline, Tacrolimus (1 mg/kg), or NU7441 ([…]). Mice were monitored for rejection daily which was indicated by dark, black appearance. At the time of sacrifice, mice were euthanisized according to IACUC guidelines and skin grafts removed and fixed in formalin for histology. Spleens and blood were also collected.
smiles,measurement,setting,value
O=c1cc(N2CCOCC2)oc2c(-c3cccc4c3sc3ccccc34)cccc12 [NU7441],NFAT phosphorylation at s237,NFAT,remained phosphorylated; also recorded: inhibited the dephosphorylation of NFAT
same,CHK2 phosphorylation at Thr68,CHK2,reduced CHK2 phosphorylation
same,CHK2 phosphorylation at Thr68,CHK2; listed as NU744,reduced
same,"level of necrosis of skin graft, average","[1]; Day 10, BALBc donor skin on C57BI6 recipient, daily injection Day 0 through Day 10",around 30%
same,rejection in skin allograft mouse model,[1]; compared to control groups treated only with saline,reduces rejection
same,visual examination of graft necrosis,[1]; treatment groups vs saline groups (severe necrosis),majority with 0% necrosis

# Reference: patent US20240245696A1, “INHIBITORS OF DNA PK AND USES THEREOF” (BioVentures, LLC, priority 2017, published 2024)
